Experimental data published in PMC7601674, “CoQ10 Deficient Endothelial Cell Culture Model for the Investigation of CoQ10 Blood–Brain Barrier Transport” (Journal of Clinical Medicine, 2020).
Each block holds one molecule with its values, some of them ahead of it.

Tests used:
[1] = tested on: bEnd.3 cells (mouse BBB cell line) monolayer; test: CoQ10 transport assay across bEnd.3 monolayer on Transwell filters (control or pABA treated); settings: for A to B CoQ10 transport, % of control / Apical to Basal CoQ10 transport, % of control: BLT-1 10 µM, FPS-ZM1 1 µM; for A to B CoQ10 transport, % of control: verapamil 0.1 mM, added 2 h before, 60 min; for Apical to Basal CoQ10 transport, % of control: RAP 0.5 µM; for Effect on Basal to Apical transport of CoQ10: antioxidant 50 µM co-administered with CoQ10 10 µM; for Effect on B to A transport of CoQ10: pABA treated bEnd.3, antioxidant 50 µM
Method: (§1) Unless stated, CoQ10 was pre-treated by incubation in serum at a concentration of 20 µM for 45 min at 37 °C, and added to assay buffer on either the Apical (blood facing) or Basal (brain facing) side of the cells on Transwell filters. The final concentration of CoQ10 used in the assays was 10 µM in serum (50% v/v). Cells were then incubated for 60 min on an orbital shaker (100 rpm) at 37 °C. Samples of the Apical (A) and Basal (B) media were then taken for analysis to calculate A to B (blood-to-brain) or B to A (brain-to-blood) Papp in cm/s, as previously described by Patabendige et al.. CoQ10 concentrations were determined using the LC-MS/MS method described above (Section 2.2).
(§2) Inhibitors of transport were added to both Apical and Basal sides of the cells for 2 h prior to assay. Antioxidants were pre-incubated with CoQ10 in serum for 45 min prior to assay, and were present in the assay buffer. Compounds used were; SR-B1 inhibitor, blocker of lipid transport-1 (BLT-1; 10 µmol/L)
(§3) As previously described, para-aminobenzoic acid (pABA) was used as a pharmacological reagent to induce CoQ10 deficiency. The mechanism of action is via competitive inhibition of polyprenyl-4-hydroxybenzoate transferase (Coq2p), a key enzyme in the later stages of the CoQ10 biosynthetic pathway. Following the method of Duberley et al., 1 mmol/L pABA was added to culture medium for 5 days prior to assay.

[2] = tested on: bEnd.3 BBB model; settings: cited from earlier work
[3] = parameters: method as in PMID 11259830; settings: cited from earlier work
[4] = tested on: bEND.3 cells; test: MTT cell viability assay; type: cell-based, mouse; settings: pABA up to 1 mM, 5 days
Method: Cell viability was determined using the MTT assay described by Mosmann. Cells were passaged onto 96-well plates, grown to confluence and washed with HBSS prior to the addition of 3-[4,5-dimethylthiazol-2-yl]-2,5-diphenyl tetrazolium bromide (MTT; 1 mg/mL) in DMEM (without phenol red). Cells were then incubated for 4 h at 37 °C, 5% CO2, after which the medium was removed, and the remaining formazan crystals dissolved in propan-2-ol (100 μL/well). The resulting purple solution was spectrophotometrically measured at 540 nm using a Multiskan Ascent plate reader with Ascent software (MTX LabSystems, USA).

[5] = tested on: bEnd.3 cellular CoQ10 content; test: Cellular CoQ10 depletion by pABA, bEnd.3; type: cell-based, mouse
Method: (§4) Final CoQ10 concentrations (nmol/L) were calculated as a ratio of CoQ10/CoQ10–[^2H9] peak areas, and quantified against the corresponding calibration curve, with appropriate correction for dilution. For intracellular determination of CoQ10 the concentration was divided by total protein (mg/mL) and expressed as pmol/mg (nmol/g) of protein.

[6] = tested on: MRC complex IV; test: Mitochondrial respiratory chain enzyme activity, complex IV; type: cell-based, mouse; settings: bEND.3, 1 mM pABA 5 days
Method: (§5) Activities of the mitochondrial respiratory chain enzymes; complex I, complex II-III and complex IV together with the mitochondrial marker enzyme, and citrate synthase (EC 2.3.3.1) were determined spectrophotometrically on a Uvikon XL spectrophotometer with LabPower software (Version 2.06S, Northstar Scientific Ltd., Potton, UK) according to the method previously described by Hargreaves et al.. Results were expressed as a ratio to citrate synthase activity, a validated biomarker of mitochondrial content, and were normalised against mg protein. Protein quantification was determined according to the Lowry method using BSA as a standard.

[7] = tested on: MRC complex II-III; test: Mitochondrial respiratory chain enzyme activity, complex II-III; type: cell-based, mouse
Method: as §5

[8] = tested on: MRC complex I; test: Mitochondrial respiratory chain enzyme activity, complex I; type: cell-based, mouse
Method: as §5

[9] = tested on: claudin-5 tight junction protein in PBEC; test: Confocal microscopy of claudin-5; type: cell-based, porcine; settings: PBEC after 5 days pABA (1 mM)
Method: Cells for confocal microscopy were fixed in paraformaldehyde (4% w/v in PBS) for 45 min, washed with HBSS and stored in glycerol (70% v/v in PBS) until use. Cells were permeabilised with Triton-x 100 (0.1% v/v in PBS), incubated with anti-Claudin 5 Monoclonal Antibody (4C3C2) Alexa Fluor 488 (1 in 80 dilution in DAKO, overnight, 4 °C, Thermofisher) to visualise tight junctions. Samples were then mounted in Vectashield containing DAPI for nuclei staining. The Nikon A1 inverted confocal microscope was used with spectral detector and Eclipse Ti-E microscope at ×40 magnification to generate digital images, analysed using Fiji (ImageJ).

[10] = tested on: PBEC tight junction integrity; test: Transendothelial electrical resistance (TEER) of PBEC monolayer; type: cell-based, porcine; settings: PBEC after 5 days pABA (1 mM); control 856 ± 71; n = 6
Method: (§6) Primary porcine brain endothelial cells (PBEC) were isolated and cultured as previously published. Briefly, cells were seeded at 10 × 10^4 cells/cm^2 on collagen and fibronectin-coated polycarbonate Transwell filters (Corning 0.4 µm pore size) in 12-well plates, and grown in low glucose DMEM (Sigma D5546) supplemented with bovine plasma-derived serum (10% v/v; BPDS, First Link UK), glutamine (2 mM), heparin (125 µg/mL), penicillin (100 U/mL) and streptomycin (100 µg/mL), at 37 °C in a 5% CO2 incubator. PBECs were grown in non-contact co-culture above primary rat astrocytes until confluent, then supplemented with hydrocortisone (550 nM), 8-4-chlorophenylthio-cAMP (250 µM) and RO-20-1724 (17.5 µM) in serum-free medium for a further 3 days. Before assays of CoQ10 transport, PBECs were separated from astrocytes by moving transwell filters to fresh culture plates.
as §3

[11] = tested on: PBEC cellular CoQ10 content; test: Cellular CoQ10 depletion by pABA, PBEC; type: cell-based, porcine
Method: as §4

[12] = tested on: citrate synthase (EC 2.3.3.1); test: Citrate synthase activity; type: cell-based, mouse; settings: bEND.3, 1 mM pABA 5 days
Method: as §5

[13] = tested on: primary porcine brain endothelial cells (PBEC) monolayer; test: CoQ10 transport assay across PBEC monolayer on Transwell filters; settings: PBEC; RAP 0.5 µM applied to the basal (brain side)
Method: as §6, §1, §2

[14] = pABA treated (1 mM; 5 days) bEnd.3
[15] = bEND.3, 1 mM pABA 5 days, ratio to citrate synthase

Molecule: CCCCCCC1CCCC1=NNC(N)=S (stereo not drawn) [BLT-1, blocker of lipid transport-1]
Effect on “net” transport of CoQ10 ([1]; control bEnd.3): “net” −ve transport | A to B CoQ10 transport, % of control ([1]; control bEnd.3): 44 % of control | Effect on “net” transport of CoQ10 [1, 14]: no significant effect | Apical to Basal CoQ10 transport, % of control [1, 14]: no effect

Molecule: N#CC(C#N)=NNc1ccc(OC(F)(F)F)cc1 [FCCP]
Permeability to FITC-dextran [2]: doubled

Molecule: O=C(c1ccc(Cl)cc1)N(Cc1ccccc1)C1CCCCC1 [FPS-ZM1]
Effect on “net” transport of CoQ10 ([1]; control bEnd.3): “net” −ve transport | A to B CoQ10 transport, % of control ([1]; control bEnd.3): 50 % of control | Effect on “net” transport of CoQ10 [1, 14]: abolished “net” A to B transport | Apical to Basal CoQ10 transport, % of control [1, 14]: 45 % of control

Molecule: Cc1c(C)c2c(c(C)c1O)CCC(C)(C(=O)O)O2 (stereo not drawn) [Trolox]
Effect on Basal to Apical transport of CoQ10 ([1]; control bEnd.3): increased Basal to Apical transport of CoQ10 | Effect on B to A transport of CoQ10 [1]: enhanced B to A transport

Permeability (Papp) compared to CoQ10, A to B direction [1]: 280 × | Permeability (Papp) compared to CoQ10, B to A direction [1]: 150 ×
Molecule: COC1=C(OC)C(=O)C(CCCCCCCCCCO)=C(C)C1=O [idebenone]
LogP [3]: less than 5 | Direction of transport [1]: transport toward the brain side (A to B) greater than efflux to blood (B to A)

Molecule: CC[C@H]1/C=C/C=C/C[C@@H](C)[C@H](O)[C@@](C)(O)C(=O)[C@@H](C)[C@H](O)[C@@H](C)C(=O)[C@@H](C)[C@H](O)[C@@H](C)/C=C/C(=O)O[C@@H]2[C@H](C)[C@H](CC1)O[C@]1(CC[C@H](C)[C@H](C[C@@H](C)O)O1)[C@H]2C [oligomycin]
Permeability to FITC-dextran [2]: doubled

Molecule: Nc1ccc(C(=O)O)cc1 [pABA, para-aminobenzoic acid]
Cell viability [4]: no change in cell viability | Depletion of cellular CoQ10 relative to controls ([5]; bEnd.3, 1 mM pABA 5 days, n = 4): 43% | Cellular CoQ10, % of control ([5]; bEnd.3, pABA 1 mmol/L 5 days): 57 % of control | MRC complex IV activity, % of control [6]: 80 % of control | Decrease in MRC complex II-III activity [7, 15]: 72% | MRC complexes II-III activity, % of control ([7]; bEnd.3, pABA 1 mmol/L 5 days): 28 % of control | Decrease in MRC complex I activity [8, 15]: 68% | MRC complex I activity, % of control ([8]; bEnd.3, pABA 1 mmol/L 5 days): 32 % of control | Claudin-5 localisation [9]: re-location of claudin-5 tight junction protein away from the cell membrane | Transendothelial electrical resistance (TEER) [10]: 49 ± 9 Ω · cm^2 | Depletion of cellular CoQ10 relative to controls ([11]; 1 mM pABA 5 days, n = 4): 36% | Cellular CoQ10, % of control ([11]; pABA 1 mmol/L 5 days): 36 % of control | Citrate synthase activity [12]: no significant change

Molecule: C=C(C)[C@H]1Cc2c(ccc3c2O[C@@H]2COc4cc(OC)c(OC)cc4[C@@H]2C3=O)O1 [rotenone]
Permeability to FITC-dextran [2]: doubled

Molecule: Cc1c(C)c2c(c(C)c1O)CC[C@@](C)(CCC[C@H](C)CCC[C@H](C)CCCC(C)C)O2 [α-tocopherol]
Effect on Basal to Apical transport of CoQ10 ([1]; control bEnd.3): increased Basal to Apical transport of CoQ10 | Effect on B to A transport of CoQ10 [1]: enhanced B to A transport

B1: receptor-associated protein (protein, UniProt P30533 35-357, looked up)
Alpha-2-macroglobulin …: YSREKNQPKPSPKRESGEEFRMEKLNQLWEKAQRLHLPPVRLAELHADLKIQERDELAWKKLKLDGLDEDGEKEARLIRNLNVILAKYGLDGKKDARQVTSNSLSGTQEDGLDDPRLEKLWHKAKTSGKFSGEELDKLWREFLHHKEKVHEYNVLLETLSRTEEIHENVISPSDLSDIKGSVLHSRHTELKEKLRSINQGLDRLRRVSHQGYSTEAEFEEPRVIDLWDLAQSANLTDKELEAFREELKHFEAKIEKHNHYQKQLEIAHEKLRHAESVGDGERVSRSREKHALLEGRTKELGYTVKKHLQDLSGRISRARHNEL
Effect on B-to-A CoQ10 efflux [13]: inhibited the B-to-A efflux | Effect on “net” transport of CoQ10 ([1]; control bEnd.3): “net” +ve transport toward the brain side (A to B) | Effect on “net” transport of CoQ10 [1, 14]: enhanced “net” +ve transport toward the brain side | Apical to Basal CoQ10 transport, % of control [1, 14]: 164 % of control
